Experimental data published in patent publication US20200270309A1, “MALEIMIDE GROUP-MODIFIED ANGIOGENESIS INHIBITOR HM-1 AND USE THEREOF” (NANJING ANJI BIOLOGICAL TECHNOLOGY CO., LTD, priority 2017, published 2020).
Marks after values point to notes of the source that are not given here. Peptide text beside a SMILES is read from it. * marks the point of attachment. X64 = O=C1C=CC(=O)N1c1cccc(CCCCCCCCCC(=O)*)c1; X52 = O=C1C=CC(=O)N1c1ccccc1CCCCCCCC(=O)*

Key:
[1] = test system: human retinal capillary endothelial cells (HRCECs); test: MTT proliferation inhibition on HRCECs; assay type: cell-based; details: 48 h; for A570 nm-A630 nm: mean±SD
Description: An MTT method was used to detect the inhibitory activity of the angiogenesis inhibitor polypeptide on proliferation of HRCECs. HRCECs were digested and collected with trypsin after being cultured in an incubator at 37° C. with 5% CO2 to a density of 90% or more. The cells were resuspended with a culture solution and counted under a microscope, the cell concentration was adjusted to 3.0×10^4 cells/mL, and the cell suspension was inoculated into a 96-well plate at 100 μL/well, and cultured overnight in an incubator at 37° C. with 5% CO2. After the cells were completely adhered to the wall, cells with the addition of the angiogenesis inhibitor polypeptide were used as administration groups, cells with the addition of Avastin were used as a positive control group, and cells with the addition of culture solution without any drugs were used as a blank control group. The cells were diluted to respective predetermined concentrations with the culture solution. The diluent were added into 96-well plates respectively at 100 μL per well, and the cells were cultured at 37° C. for 48 h in an incubator with 5% CO2. 20 μL of 5 mg/mL MTT was added into each well of the 96-well plate, and the cultivation was continued for 4 h. The culture medium was removed, and 100 μL of DMSO was added to each well for dissolution. The absorbance was measured at a detection wavelength of 570 nm and a reference wavelength of 630 nm using a microplate reader, and the PIR was calculated by the formula as follows:
PIR (%)=1−administration group/negative group
The experiment was repeated independently three times. The results were expressed as mean±SD, and statistical T test was conducted. *P<0.05 indicates significant difference, and **P<0.01 indicates extremely significant difference.

[2] = test system: carrageenan-induced toe swelling; test: Carrageenan-induced toe swelling in rats; assay type: in vivo; details: SD rats; for Swelling degree 1 h: 1 h after carrageenan; for Swelling degree 3 h: 3 h after carrageenan; for Swelling degree 5 h: 5 h after carrageenan; for Swelling degree 7 h: 7 h after carrageenan
Description: The rats were injected once a day, and the model group was given the same volume of normal saline for 3 d and fed normally. […] The foot swelling degree was calculated according to the following formula: foot swelling degree (mL)=foot volume after inflammation-foot volume before inflammation. The number of milliliters of overflow liquid was recorded (method: a ballpoint pen is used to circle the protruding point of the right joint as a measurement mark, and the right hind feet of each rat are sequentially placed into the volume measurer, so that the hind limbs are exposed outside the barrel, and the immersion depth is at the coincidence of the circle and the liquid level. After the foot enters the liquid, the liquid level rises, and the volume of overflow liquid is the volume of the right hind foot of the rat, and the normal volume of the right hind foot of each rat is measured in sequence).

splenic lymphocytes = test: Proliferation of splenic lymphocytes in mice (ConA, MTT); assay type: cell-based; details: ConA-stimulated mouse splenic lymphocytes, 48 h
Description: Spleens of mice were taken out under aseptic conditions, washed with blank 1640 culture medium 3 times, ground with a 5 mL syringe core, filtered with a 200-mesh sieve, made into a single cell suspension. The suspension was centrifuged (1000 rpm×5 min), and supernatant was removed. Red blood cells were lysed by Tris-NH4Cl, and placed in ice water bath for 4 min and centrifuged (1000 rpm×5 min). The supernatant was removed, and the cells were washed twice with sterile PBS. Finally, RPMI 1640 culture solution (5 mL) containing 10% calf serum was added to suspend the cells. The cells were counted and the cell concentration was adjusted to 5×10^6 cells/mL, and the cells were cultured in a 96-well culture plate.
Blank control group, concanavalin A (ConA) group and dexamethasone (Dex) group were set in the experiment, and polypeptide X1-X90 groups were set as test groups. After 100 μL of splenic lymphocytes suspension per well was added into each group, 100 μL of blank 1640 culture solution was added into the blank control group, ConA was added into the ConA group, Dex was added into the Dex group, and ConA was added into the test groups on the basis of adding different concentrations of polypeptides X1-X90. The cells were static cultured at 37° C. in a cell incubator for 48 h. After the cultivation was completed, 20 μL of MTT was added to each well, and the cultivation was continued for 4 h. Finally, all the solutions in each well were discarded. 100 μL DMSO was added to each well and shaken, and the OD value at 570 nm was detected with a microplate reader. Five parallel experiments were set in each well.

[3] = test system: choroidal neovascularization; test: Choroidal neovascularization in rats (laser photocoagulation, FFA); assay type: in vivo; details: BN rats
Description: 6-8 weeks male BN rats were fully anesthetized by intraperitoneal injection of 846 compound anesthetic with a concentration of 0.5 mL/kg. Compound tropicamide eye drops were used once 5 min before laser photocoagulation to fully dilate the pupils of both eyes. The animals were fixed and subjected to krypton laser photocoagulation equidistantly around an optic disc with the aid of a −53.00D corneal contact lens at a distance of 2PD from the optic disc. A total of 8 photocoagulation spots were obtained. The laser wavelength was 647.1 nm, the power was 350 mW, and the diameter and time of the photocoagulation spots were 50 μm and 0.05 s respectively. Fundus photography was performed immediately after photocoagulation. FFA, histopathology and transmission electron microscopy were performed on the days 3, 7, 14, 21 and 28 after photocoagulation respectively.
Through fundus photography and FFA examination, it was confirmed that the fluorescein leakage of the photocoagulation spot reached its peak on day 21 after photocoagulation. At the same time, histopathological examination was carried out.
Rats with successful modeling were randomly grouped, with 5 rats in each group. The groups were marked as a negative control group and X1-X90 treatment groups respectively. The rats were injected with normal saline and X1-X90 (the doses of X1-X90 were each 0.05 μM) in the vitreous chamber once a day for 1 week. FFA examination was carried out 3 days, 7 days, 14 days and 28 days after administration.

[4] = test system: corneal neovascularization; test: Corneal neovascularization induced by alkali burn in BALB/c mice; assay type: in vivo; parameters: Inhibition rate (corneal neovascularization): concentration or dose not given beside the values; details: day 14 after alkali burn, vitreous injection once a day for 1 week
[5] = day 3 after administration, total light spot number was 297, 0.05 μM in the vitreous chamber once a day for 1 week
[6] = day 7 after administration, total light spot number was 186, 0.05 μM in the vitreous chamber once a day for 1 week
[7] = day 14 after administration, total light spot number was 137, 0.05 μM in the vitreous chamber once a day for 1 week
[8] = day 28 after administration, total light spot number was 69, 0.05 μM in the vitreous chamber once a day for 1 week

Row | SMILES | Inhibition rate (%) ([1]; dose 0.05 μM) [%*] | A570 nm-A630 nm ([1]; dose 0.05 μM) | Inhibition rate (%) ([1]; dose 0.1 μM) [%**] | A570 nm-A630 nm ([1]; dose 0.1 μM) | Inhibition rate (%) ([1]; dose 0.2 μM) [%*] | A570 nm-A630 nm ([1]; dose 0.2 μM) | Swelling degree 1 h ([2]; 2.0 mg/kg once a day for 3 d) [mg] | Swelling degree 3 h ([2]; 2.0 mg/kg once a day for 3 d) [mg] | Swelling degree 5 h ([2]; 2.0 mg/kg once a day for 3 d) [mg] | Swelling degree 7 h ([2]; 2.0 mg/kg once a day for 3 d) [mg] | Swelling degree 1 h ([2]; 4.0 mg/kg once a day for 3 d) [mg] | Swelling degree 3 h ([2]; 4.0 mg/kg once a day for 3 d) [mg] | Swelling degree 5 h ([2]; 4.0 mg/kg once a day for 3 d) [mg] | Swelling degree 7 h ([2]; 4.0 mg/kg once a day for 3 d) [mg] | A570 nm/A630 nm (splenic lymphocytes; polypeptide dose 0.05 μM) | Inhibition rate (%) (splenic lymphocytes; polypeptide dose 0.05 μM) | A570 nm/A630 nm (splenic lymphocytes; polypeptide dose 0.1 μM) | Inhibition rate (%) (splenic lymphocytes; polypeptide dose 0.1 μM) | A570 nm/A630 nm (splenic lymphocytes; polypeptide dose 0.2 μM) | Inhibition rate (%) (splenic lymphocytes; polypeptide dose 0.2 μM) | other results
1 | C[C@H](NC(=O)CNC(=O)[C@H](CCCNC(=N)N)NC(=O)CCCCCCCc1ccccc1N1C(=O)C=CC1=O)C(=O)N[C@@H](CC(=O)O)C(=O)N[C@@H](CCCNC(=N)N)C(=O)N[C@@H](C)C(=O)NCC(=O)NCC(=O)NCC(=O)NCC(=O)N[C@@H](CCCNC(=N)N)C(=O)NCC(=O)N[C@@H](CC(=O)O)C(=O)O [X19] (X52-RGADRAGGGGRGD-OH) | 51.03 | 0.6472 ± 0.01829 | 63.29 | 0.4852 ± 0.07133 | 64.71 | 0.4664 ± 0.01886 | 0.21 ± 0.13 | 0.33 ± 0.15 | 0.36 ± 0.17 | 0.32 ± 0.12 | 0.26 ± 0.11 | 0.38 ± 0.17 | 0.42 ± 0.15 | 0.32 ± 0.18 | 0.5093 ± 0.0372 | 24.59 | 0.5027 ± 0.0814 | 25.57 | 0.4978 ± 0.0481 | 26.30 | CNV Incidence (%) [3, 5]: 52.19%; Leakage Light spot number [3, 5]: 155; CNV Incidence (%) [3, 6]: 45.70%; Leakage Light spot number [3, 6]: 85; CNV Incidence (%) [3, 7]: 41.61%; Leakage Light spot number [3, 7]: 57; CNV Incidence (%) [3, 8]: 44.93%; Leakage Light spot number [3, 8]: 31; Inhibition rate (corneal neovascularization) [4]: 41.43%; MVD (corneal microvessel density) [4]: 39.38 ± 4.833
2 | C[C@H](NC(=O)CNC(=O)[C@H](CCCNC(=N)N)NC(=O)CCCCCCCCCc1cccc(N2C(=O)C=CC2=O)c1)C(=O)N[C@@H](CC(=O)O)C(=O)N[C@@H](CCCNC(=N)N)C(=O)N[C@@H](C)C(=O)NCC(=O)NCC(=O)NCC(=O)NCC(=O)N[C@@H](CCCNC(=N)N)C(=O)NCC(=O)N[C@@H](CC(=O)O)C(=O)O [X33] (X64-RGADRAGGGGRGD-OH) | 42.66 | 0.7579 ± 0.03744 | 46.86 | 0.7024 ± 0.04477 | 62.24 | 0.4991 ± 0.04854 | 0.22 ± 0.13 | 0.37 ± 0.11 | 0.42 ± 0.17 | 0.35 ± 0.13 | 0.25 ± 0.14 | 0.31 ± 0.13 | 0.44 ± 0.19 | 0.33 ± 0.18 | 0.5669 ± 0.1137 | 16.06 | 0.5297 ± 0.0479 | 21.57 | 0.4492 ± 0.1069 | 33.49 | CNV Incidence (%) [3, 5]: 54.21%; Leakage Light spot number [3, 5]: 161; CNV Incidence (%) [3, 6]: 46.24%; Leakage Light spot number [3, 6]: 86; CNV Incidence (%) [3, 7]: 45.26%; Leakage Light spot number [3, 7]: 62; CNV Incidence (%) [3, 8]: 37.68%; Leakage Light spot number [3, 8]: 26; Inhibition rate (corneal neovascularization) [4]: 47.20%; MVD (corneal microvessel density) [4]: 35.50 ± 3.223
